Patent US20050123616A1, “Azithromycin multiparticulate dosage forms by liquid-based processes” (Pfizer Inc, priority 2003, published 2005)

How the values were obtained:
[1] = amount of azithromycin dihydrate dissolved in coating solution, indicated by pH; assay type: physicochemical; details: aqueous hydroxypropyl cellulose coating solution, pH 9
Experimental: Multiparticulates were made by a spray-coating process using the following procedure. First, 30 g of the low reactivity carrier hydroxypropyl cellulose containing virtually no acid or ester substituents (KLUCEL EF from Aqualon, Inc. of Wilmington, Del.) were dissolved into 800 g of distilled water. To this solution was then added 119.6 g of crystalline azithromycin dihydrate having a degree of crystallinity of >99%.

[2] = distilled water at pH 6.9; cited from earlier work

Structure (SMILES): CC[C@H]1OC(=O)[C@H](C)[C@@H](O[C@H]2C[C@@](C)(OC)[C@@H](O)[C@H](C)O2)[C@H](C)[C@@H](O[C@@H]2O[C@H](C)C[C@H](N(C)C)[C@H]2O)[C@](C)(O)C[C@@H](C)CN(C)[C@H](C)[C@@H](O)[C@]1(C)O [azithromycin dihydrate, 9a-aza-9a-methyl-9-deoxo-9a-homoerythromycin A]
- amount of azithromycin dihydrate dissolved in the solution [1]: less than 1 mg/mL
- solubility [2]: 1100 µg/mL
